Data reported in US8778871B2 (Takeda Pharmaceutical Company Limited, priority 2004, dated 2014).
Starred links: 1 amine or outer side, 2 acyl side, 3 side chain; linkers in the order of their positions; H or OH if unused. Non-standard residues stand in square brackets, D forms with d. Residues, ends and D or L forms follow the SMILES beside them. No end group written: not given here. *: point of attachment. Propanoyl(3-indol-3-yl) = O=C(CCc1c[nH]c2ccccc12)*; Arg(Me) = CNC(=N)NCCC[C@H](N)C(=O)O; Tryptamide = c1ccc2c(CCN*)c[nH]c2c1; Abu = CC[C@H](N)C(=O)O; CO = O=C([*:1])[*:2]; Bz = O=C(c1ccccc1)*; azaGly = NNC(=O)O

Tests used:
[1] = biological target: T1, hOT7T175 (Homo sapiens, UniProt Q969F8); experiment: Intracellular Ca ion level-increasing activity using FLIPR (180 seconds; specific activity to Metastin (1-54)); format: cell-based; details: hOT7T175/CHO, change in intracellular calcium ion level for 180 seconds, Tables 21-23
T1 construct: expressed in transfected cells
T1 sequence (Q969F8 whole entry L364H): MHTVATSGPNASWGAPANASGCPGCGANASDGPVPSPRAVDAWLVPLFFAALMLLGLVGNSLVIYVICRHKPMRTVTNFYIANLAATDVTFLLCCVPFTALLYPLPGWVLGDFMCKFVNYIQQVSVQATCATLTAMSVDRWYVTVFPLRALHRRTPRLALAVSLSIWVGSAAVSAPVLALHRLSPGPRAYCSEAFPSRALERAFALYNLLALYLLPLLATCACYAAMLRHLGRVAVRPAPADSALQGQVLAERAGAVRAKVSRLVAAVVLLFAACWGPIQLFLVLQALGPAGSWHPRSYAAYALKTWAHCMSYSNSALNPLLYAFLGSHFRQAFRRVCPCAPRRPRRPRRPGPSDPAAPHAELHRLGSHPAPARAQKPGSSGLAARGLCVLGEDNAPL

[2] = biological target: T2, hOT7T175 (Homo sapiens, UniProt Q969F8, L364H); format: cell-based; details: hOT7T175/CHO, FLIPR, evaluation for 40 seconds after initiation of the reaction
T2 construct: expressed in transfected cells
T2 sequence (Q969F8 whole entry L364H): as above
Method: The intracellular Ca ion level-increasing activity was measured using FLIPR as in TEST EXAMPLE 2.

Row | Compound | intracellular Ca ion level-increasing activity [specific activity to Metastin (1-54)] [1] | Specific Act. (EC50/MS10 EC50) [2]
1 | Ac-NSF[azaGly]L[Arg(Me)]W-NH2 [Compound No. 510] | 3 | 3.5
2 | D-Tyr-D-Pya(4)-Asn-Ser-Cha-Ala-Leu-Arg(Me)-Trp-NH2 [Compound No. 497] | 2 | 1.4
3 | CNC(=N)NCCC[C@H](NC(=O)[C@H](CC(C)C)NC(=O)NNC(=O)[C@H](Cc1ccccc1)NC(=O)[C@H](CO)NC(=O)[C@H](CC(N)=O)NC(=O)NCCc1c[nH]c2ccccc12)C(=O)N[C@@H](Cc1ccccc1)C(N)=O [Compound No. 279, 2-(indol-3-yl)ethylcarbamoyl-Asn-Ser-Phe-AzaGly-Leu-Arg(Me)-Phe-NH2] ({Tryptamide-CO}-NSF[azaGly]L[Arg(Me)]F-NH2) | 5 | 6.4
4 | CNC(=N)NCCC[C@H](NC(=O)[C@H](CC(C)C)NC(=O)NNC(=O)[C@H](Cc1ccccc1)NC(=O)[C@@H](NC(=O)[C@H](CC(N)=O)NC(=O)[C@H](Cc1c[nH]c2ccccc12)NC(=O)[C@@H](CC(N)=O)NC(=O)[C@H](N)Cc1ccc(O)cc1)[C@@H](C)O)C(=O)N[C@@H](Cc1ccccc1)C(N)=O [Compound No. 298, D-Tyr-D-Asn-Trp-Asn-Thr-Phe-AzaGly-Leu-Arg(Me)-Phe-NH2] (H-[dY][dN]WNTF[azaGly]L[Arg(Me)]F-NH2) | 5 | 1.8
5 | CNC(=N)NCCC[C@H](NC(=O)[C@H](CC(C)C)NC(=O)NNC(=O)[C@H](Cc1ccccc1)NC(=O)[C@H](CO)NC(=O)[C@H](CC(N)=O)NC(=O)CCc1c[nH]c2ccccc12)C(=O)N[C@@H](Cc1ccccc1)C(N)=O [Compound No. 260, 3-(3-Indolyl)propionyl-Asn-Ser-Phe-AzaGly-Leu-Arg(Me)-Phe-NH2] ({Propanoyl(3-indol-3-yl)}-NSF[azaGly]L[Arg(Me)]F-NH2) | 5 | 4.3
6 | Bz-F[azaGly]L[Arg(Me)]F-NH2 [Compound No. 341] | 2 | 2.8
7 | Dimethylcarbamoyl-Phe-AzaGly-Leu-Arg(Me)-Trp-NH2 [Compound No. 467] | 1 | 4.0
8 | Benzoyl-Phe-AzaGly-Leu-Arg(Me)-Trp-NH2 [Compound No. 353] | 10 | 0.8
9 | Dap-D-Tyr-Asn-Trp-Asn-Ser-Phe-Gly-Leu-Arg(Me)-Phe-NH2 [Compound No. 387] | 1 | 5.0
10 | 6-Methylnicotinoyl-Phe-AzaGly-Leu-Arg(Me)-Trp-NH2 [Compound No. 445] | 5 | 4.2
11 | 2-Aminoethyl-Gly-D-Tyr-Asn-Trp-Asn-Ser-Phe-Gly-Leu-Arg(Me)-Phe-NH2 [Compound No. 375] | 2 | 5.2
12 | D-Tyr-D-Pya(4)-Asn-Ser-Phe-AzaGly-Leu-Har-Trp-NH2 [Compound No. 481] | 5 | 2.4
13 | D-Tyr-D-Pya(4)-Asn-Ile-Phe-AzaGly-Leu-Arg(Me)-Trp-NH2 [Compound No. 498] | 7 | 1.5
14 | CNC(=N)NCCC[C@H](NC(=O)[C@H](CC(C)C)NC(=O)NNC(=O)[C@H](Cc1ccccc1)NC(=O)[C@@H](NC(=O)[C@H](CC(N)=O)NC(=O)[C@H](Cc1c[nH]c2ccccc12)NC(=O)[C@H](CC(N)=O)NC(=O)[C@H](N)Cc1ccc(O)cc1)[C@@H](C)O)C(=O)N[C@@H](Cc1ccccc1)C(N)=O [Compound No. 297, D-Tyr-Asn-Trp-Asn-Thr-Phe-AzaGly-Leu-Arg(Me)-Phe-NH2] (H-[dY]NWNTF[azaGly]L[Arg(Me)]F-NH2) | 1 | 5.5
15 | Diphenylacetyl-AzaGly-Leu-Arg(Me)-Trp-NH2 [Compound No. 378] | ½ | 10.4
16 | Benzoyl-PheΨ(NHCO)Gly-Leu-Arg(Me)-Trp-NH2 [Compound No. 423] | 5 | 5.6
17 | 1-Azetidinecarbonyl-Phe-AzaGly-Leu-Arg(Me)-Trp-NH2 [Compound No. 468] | 1 | 5.2
18 | [dY][dW][Abu]SF[azaGly]L[Arg(Me)]W-NH2 [Compound No. 513] | 20 | 0.4
